# Source: PubChem BioAssay AID493250 (Broad Institute, 2011)
# Calls of active or inactive are those of the source.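 The calls were made as follows: active = signal decrease with fitted half-maximal dose at or below ten times the highest valid tested dose; inconclusive = poor fit, or flat fit at 30 to 70% inhibition; inactive = the rest.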
# Target: Zinc finger protein mex-5 (Caenorhabditis elegans) (UniProt Q9XUB2)
# Experiment: inhibitors of MEX-5 RNA binding, dose response, biochemical, fluorescence polarization, C. elegans, cherry-picked, round 3 (AID 493250)
# Details: purified MEX-5-MBP, FITC-TCR2 RNA fluorescence polarization
# Zinc finger protein mex-5 (Caenorhabditis elegans), sequence (Q9XUB2 whole entry, looked up): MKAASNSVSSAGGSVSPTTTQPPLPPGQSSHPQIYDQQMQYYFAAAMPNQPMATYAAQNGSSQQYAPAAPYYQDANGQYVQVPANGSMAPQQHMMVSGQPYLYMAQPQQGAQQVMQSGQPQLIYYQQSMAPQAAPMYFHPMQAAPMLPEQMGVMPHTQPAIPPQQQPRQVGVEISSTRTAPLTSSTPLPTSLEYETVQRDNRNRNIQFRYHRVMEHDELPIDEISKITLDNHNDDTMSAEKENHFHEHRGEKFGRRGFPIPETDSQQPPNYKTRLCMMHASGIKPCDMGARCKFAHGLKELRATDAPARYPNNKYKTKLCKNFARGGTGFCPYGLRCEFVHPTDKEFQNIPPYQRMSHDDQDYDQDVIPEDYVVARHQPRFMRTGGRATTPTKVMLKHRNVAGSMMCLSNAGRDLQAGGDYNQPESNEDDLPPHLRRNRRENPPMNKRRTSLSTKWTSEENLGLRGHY
row,SMILES,AC50
1,CCCC1C2CN(C(C)C)CC=C2C(C#N)=C(N)C1(C#N)C#N (configuration not stated),4.99 µM
2,CNC(=O)c1cc2ccc(OC)cc2oc1=O,> 10 µM (inactive)
3,COc1ccccc1/C=C1\SC(=S)N(CCC(=O)Nc2cc(C)on2)C1=O,> 10 µM (inactive)
4,Cc1ccc2c(c1)c1nc3ccccc3nc1n2C,6.78 µM
5,CNC(=O)c1sc(N2N=C3/C(=C/c4ccccc4)CCCC3C2c2ccccc2)nc1C (configuration not stated),7.59 µM
6,CCN1/C(=C/C=C/c2oc3ccc(-c4ccccc4)cc3[n+]2CC)Oc2ccc(-c3ccccc3)cc21,0.338 µM
7,COc1ccc(NS(=O)(=O)c2cccc(C(=O)NNC(=O)c3cc(S(N)(=O)=O)ccc3OC)c2)cc1,> 10 µM (inactive)
8,CCCC1=NN2C(=N)/C(=C\c3ccc(SCc4ccco4)o3)C(=O)N=C2S1,0.98 µM
9,Cc1ccc(C(=O)O)cc1-c1ccc(/C=C2\SC(=O)N(CC(=O)Nc3ccccc3)C2=O)o1,2.74 µM

# Same assay, conditions: purified MEX-5-MBP, FITC-TCR2 RNA fluorescence polarization; at 10 µM (top of the series)
row,SMILES,"activity change, negative = inhibition"
1,Cc1c(N=Cc2cc3c(cc2[N+](=O)[O-])OCO3)cccc1[N+](=O)[O-],inactive
2,Nc1cc(C(=O)O)c(Oc2ccc(Cl)cc2Cl)cc1C(=O)O,inactive
3,CC(=O)Nc1ccc(/C=C/c2nc(-c3ccccc3O)n[nH]2)cc1,inactive
4,CC1=C(C(=O)OCc2ccccc2)C(c2ccc(N(C)C)cc2)NC(=O)N1 (configuration not stated),inactive
5,CC(C)(C)CC(C)(C)NCC(O)COc1ccc2c(c1)CCC2 (configuration not stated),inactive
6,COc1ccc(CCn2c(=N)c(C(=O)NCC3CCCO3)cc3c(=O)n4ccccc4nc32)cc1 (configuration not stated),inactive
7,CN(N)N=Nc1nc2c([nH]1)c(=O)n(C)c(=O)n2C,inactive
8,CCOc1cc(/C=N/NC(=O)N/N=C/c2ccc(O)c(OCC)c2)ccc1O,inactive
9,CC(=O)c1cc(NC(=O)c2ccc(C)cc2)c(=O)oc1C,inactive
10,Nc1ccc2oc(-c3ccccc3Cl)cc(=O)c2c1O,inactive
11,COc1cccc(CNC23CC4CC(CC(C4)C2)C3)c1OCc1ccccc1,inactive
12,COC(=O)CCC(=O)NC(=S)Nc1sc(C)c(C)c1C(N)=O,inactive
13,O=C(O)c1ccc(NCc2cccnc2)cc1,inactive
14,O=S(=O)(O)c1nc2ccccc2n1Cc1ccc(Cl)cc1Cl,inactive
15,CSCCCN1CCC(n2nccc2NC(=O)CCCc2ccccc2)CC1,inactive
16,CC(=O)Nc1ccc2c(c1)C(=O)N(c1cccc(C)c1)C2=O,inactive
17,COc1cccc(NC(=S)NNC(=O)C(C)n2nc(C)c([N+](=O)[O-])c2C)c1 (configuration not stated),inactive
18,COc1ccc(NC(=O)c2coc(C)c2)cc1,inactive
19,N=C(N)N=Nc1c(O)[nH]c2ccc(Br)cc12,inactive
20,O=[N+]([O-])c1ccc(-c2cn3nc(-c4ccccc4)c(-c4ccccc4)nc3n2)cc1,inactive
21,Cc1cccnc1Nc1nc(-c2ccc(O)cc2O)cs1,inactive

row,SMILES,"activity change, negative = inhibition"
1,C/C=C(\C)CN1CCC(n2nccc2NC(=O)CCCc2ccccc2)CC1,inactive
2,COc1c(O)ccc(/C=C(\C#N)c2nc3ccccc3[nH]2)c1[N+](=O)[O-],inactive
3,O=C(O)c1ccccc1N=Nc1c(O)[nH]c2ccc([N+](=O)[O-])cc12,inactive
4,CCCOc1ccc(C2=CSC3=NCCN23)cc1[N+](=O)[O-],inactive
5,CC[N+](C)(CC)CCCOC(=O)C(O)(c1ccccc1)C1CCCCC1 (configuration not stated),inactive
6,N=C1C(c2nc3ccccc3[nH]2)=C(O)CN1c1ccc(F)cc1,inactive
7,COc1cc2c(cc1O)CC1c3c(cc(O)c(OC)c3-2)CCN1C (configuration not stated),inactive
8,C=CCn1c(Cc2nc3ccc(Cl)cc3[nH]2)n[nH]c1=S,inactive
9,O=C1N=c2ccccc2=C1c1sc(=S)n(NC(=O)c2cccc(O)c2)c1O,inactive
10,c1cncc(C2CC(c3cccs3)n3ncnc3N2)c1 (configuration not stated),inactive
11,CCOc1ccccc1N=NC1C(=O)N(C(N)=S)N=C1C (configuration not stated),inactive
12,CCCC(=O)Nc1ccc(NC(=O)c2cccs2)cn1,inactive
13,Cn1nc(C(=O)NNC(=O)c2ccc(Cl)cc2)ccc1=O,inactive
14,CC1CN2C(c3ccc([N+](=O)[O-])cc3)=CSC2=N1 (configuration not stated),inactive
15,Cc1ccc(Nc2nc(-c3ccc(O)cc3O)cs2)nc1,inactive
16,Oc1ccc(/C=N/N2CCOCC2)c(O)c1O,inactive
17,N#Cc1cc2c(=O)n3ccccc3nc2n(CCCN2CCOCC2)c1=O,inactive
18,CC(=O)O[C@@H]1[C@@H](O)[C@@H](O)[C@H](Oc2c(-c3ccc(O)cc3)oc3c(CC=C(C)C)c(O)cc(O)c3c2=O)O[C@H]1C,inactive
19,COc1ccc(/C=N/Nc2nc(=O)[nH]nc2C)cc1[N+](=O)[O-],inactive
20,CCCn1c(=N)c(C(=O)NC2CCCC2)cc2c(=O)n3cccc(C)c3nc21,inactive
21,Oc1cccc(NC(=S)N=Nc2c(O)[nH]c3ccc(Br)cc23)c1,inactive

row,SMILES,"activity change, negative = inhibition"
1,COC(=O)c1cccc(-c2ccc(C(c3c(C)[nH][nH]c3=O)c3c(C)[nH][nH]c3=O)o2)c1,inactive
2,CCCCN(CCCC)CCNC(=O)CNC(=O)c1cccs1,inactive
3,CCc1ccc(S(=O)(=O)Nc2ccc(O)c3c(=O)cc(-c4ccccc4Cl)oc23)cc1,inactive
4,CC1=CC2=NC(=O)/C(=C\c3ccc(-c4cccc(Cl)c4)o3)C(=N)N2O1,inactive
5,CC(C#N)(Nc1ccc(Cl)cc1)c1cccnc1 (configuration not stated),inactive
6,O=C(Nc1ccc(OCc2ccccc2)cc1)Nc1cccnc1,inactive
7,FC(F)(F)c1ccc(Cl)c(-n2c(-c3cc(-c4ccco4)[nH]n3)n[nH]c2=S)c1,inactive
8,O=C(NC1CCSc2ccccc21)c1ccc([N+](=O)[O-])cc1 (configuration not stated),inactive
9,O=C(O)c1ccc(/C=C2\SC(=S)N(Nc3ccccc3)C2=O)cc1,inactive
10,O=[N+]([O-])c1cc(S(=O)(=O)c2ccc(O)c([N+](=O)[O-])c2)ccc1O,inactive
11,COc1ccc(CCNc2c3ccccc3nc3ccccc23)cc1OC,inactive
12,COCCN1CCC(CNCc2cn(-c3cc(C)ccc3C)nc2-c2ccccc2)C1 (configuration not stated),inactive
13,CCN(CC)c1ccc2nc3ccccc3[n+](CC)c2c1,inactive
14,Cc1ccc(NC(=O)CCC(=O)NNC(=S)Nc2ccccc2)c(C)c1,inactive
15,CN(C)CC(O)COc1ccc(C(C)(C)c2ccc(OCC(O)CN(C)C)cc2)cc1 (configuration not stated),inactive
16,Cc1ccc(N2C(=O)c3ccc(C(=O)O)cc3C2=O)cc1C,inactive
17,O=C(CSc1nnc(COc2ccccc2)o1)Nc1nccs1,inactive
18,Cc1ccc(C(=O)N/C(=C\c2ccc(-c3ccccc3[N+](=O)[O-])o2)C(=O)NCCN(C)C)cc1,inactive
19,COC(=O)c1cc(NC(=O)c2ccccc2)c(=O)oc1C,inactive
20,CC1(N2CCOCC2)CC2(O)C(=[N+]1[O-])CCc1c2no[n+]1[O-] (configuration not stated),inactive
21,Cc1ccc(S(=O)(=O)c2cc3c(=O)n4cccc(C)c4nc3n(C3CCCCC3)c2=N)cc1,inactive

row,SMILES,"activity change, negative = inhibition"
1,CC(=O)Nc1ccc(/C=N\NC(=O)CNS(=O)(=O)c2ccc([N+](=O)[O-])cc2)cc1,inactive
2,CC(=O)N1C(=O)/C(=C2\SC(=S)N(NC(=O)c3ccc(O)cc3)C2=O)c2ccccc21,inactive
3,COc1ccc2nc3ccccc3nc2c1N,inactive
4,COc1cccc(NCc2cc(=O)oc3cc(C)c(O)cc23)c1,inactive
5,CCc1ccc(/C=C2\Oc3cc(OS(C)(=O)=O)ccc3C2=O)cc1,inactive
6,O=C(N/N=C/c1c(O)n(Cc2ccco2)c(=O)[nH]c1=O)c1ccccc1,inactive
7,Nc1c(NCc2ccccc2)c(=O)[nH]c(=O)n1Cc1ccccc1,inactive
8,CN1CCc2nc3sc(C(=O)NC(C)(C)C)c(N)c3cc2C1,inactive
9,CCOC(=O)c1cnc2c(N=Nc3ccccc3)c(N)nn2c1N,inactive
10,CC(=O)c1cc(NC(=O)c2ccc([N+](=O)[O-])cc2)c(=O)oc1C,inactive
11,Cc1csc(NC(=O)c2ccc(-c3ccc(Cl)cc3Cl)o2)n1,inactive
12,CCn1c(O)c(N=NC(=O)CNC(=O)/C=C/c2ccco2)c2ccccc21,inactive
13,CC1=Nc2ccc(C)cc2/C1=C/c1c(N)n2c(S(=O)(=O)C(C)C)nsc2nc1=O,inactive
14,O=C(O)CCC(=O)NNc1ncnc2ccccc12,inactive
15,COc1ccc(-n2c(C)nc3cc(C(=O)O)ccc32)cc1,inactive
16,CSc1ccc(C(c2c(C(=O)O)[nH]c3ccccc23)c2c(C(=O)O)[nH]c3ccccc23)cc1,inactive
17,COc1ccc2c(c1)NC(c1ccc(N(C)C)cc1)c1cccn1-2 (configuration not stated),inactive
18,Cc1ccc(Nc2nc(-c3ccc(C)cc3)c(CC(=O)O)s2)cc1,inactive
19,CCCCn1c(N)c(N(Cc2ccccc2OC)C(=O)C(C)C)c(=O)[nH]c1=O,inactive
20,Cc1ccc(C(=O)N/C(=C\c2ccc(-c3ccc(Cl)cc3)o2)C(=O)NCCCN(C)C)cc1,inactive
